# Experimental data as given in ChEMBL document CHEMBL1201862, “PubChem BioAssay data set” (2004).
#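 Following 48 hours of exposure in 96-well plates, responses at five concentrations were used to interpolate endpoints linearly. At the GI50, growth is halved.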 Activity calls are given as the source filed them. Cut-off read from the data, not from the text of the source: active = GI50 up to about 1.1 µM and inactive = higher.
# Columns and labels:
# Test in all cases: NCI tumour cell line growth inhibition, 48 h
# OVCAR-3 = test system: OVCAR-3
# Malme-3M = test system: Malme-3M
# HOP-92 = test system: HOP-92
# U-251 = test system: U-251
# SW-620 = test system: SW-620
# HCT-15 = test system: HCT-15
# CAKI-1 = test system: CAKI-1
# MDA-MB-435 = test system: MDA-MB-435
# CCRF-CEM = test system: CCRF-CEM
# SK-MEL-28 = test system: SK-MEL-28
# HT-29 = test system: HT-29
# HCC 2998 = test system: HCC 2998
# COLO 205 = test system: COLO 205
# SF-268 = test system: SF-268
# HOP-62 = test system: HOP-62
# SK-MEL-2 = test system: SK-MEL-2
# OVCAR-8 = test system: OVCAR-8
# NCI-H522 = test system: NCI-H522
# SF-539 = test system: SF-539
Compound,GI50 (OVCAR-3),GI50 (Malme-3M),GI50 (HOP-92),GI50 (U-251),GI50 (SW-620),GI50 (HCT-15) [µM],GI50 (CAKI-1),GI50 (MDA-MB-435),GI50 (CCRF-CEM),GI50 (SK-MEL-28),GI50 (HT-29),GI50 (HCC 2998),GI50 (COLO 205),GI50 (SF-268),GI50 (HOP-62),GI50 (SK-MEL-2),GI50 (OVCAR-8),GI50 (NCI-H522),GI50 (SF-539)
COc1cc(OC)cc(-c2nc(O)c3ccccc3n2)c1,> 100 µM (inactive),> 100 µM (inactive),> 100 µM (inactive),39.3 µM (inactive),> 100 µM (inactive),> 100,> 100 µM (inactive),> 100 µM (inactive),> 100 µM (inactive),> 100 µM (inactive),> 100 µM (inactive),> 100 µM (inactive),> 100 µM (inactive),63.2 µM (inactive),38.9 µM (inactive),> 100 µM (inactive),24.6 µM (inactive),–,–
CC(=O)Oc1cc2c(cc1OC(C)=O)[C@H]1CC[C@]3(C)[C@@H](OC(C)=O)CC[C@H]3[C@@H]1CC2,2.21 µM (inactive),–,1.1 µM (active),4.95 µM (inactive),1.9 µM (inactive),1.48,3.22 µM (inactive),–,–,4.15 µM (inactive),5.14 µM (inactive),7.71 µM (inactive),3.43 µM (inactive),4.66 µM (inactive),–,3.06 µM (inactive),6.7 µM (inactive),1.16 µM (inactive),–
CC(C)Cc1cnc(CC(C)C)c(=O)[nH]1,> 100 µM (inactive),–,> 100 µM (inactive),> 100 µM (inactive),> 100 µM (inactive),> 100,> 100 µM (inactive),> 100 µM (inactive),> 100 µM (inactive),> 100 µM (inactive),> 100 µM (inactive),> 100 µM (inactive),> 100 µM (inactive),> 100 µM (inactive),> 100 µM (inactive),> 100 µM (inactive),> 100 µM (inactive),–,–
COCOCC1CCCN1CN1CCC[C@H]1COCOC (stereo partly specified),> 100 µM (inactive),–,> 100 µM (inactive),> 100 µM (inactive),33.2 µM (inactive),38.3,> 100 µM (inactive),> 100 µM (inactive),39.2 µM (inactive),> 100 µM (inactive),70.6 µM (inactive),–,77.8 µM (inactive),> 100 µM (inactive),> 100 µM (inactive),> 100 µM (inactive),> 100 µM (inactive),> 100 µM (inactive),–
CC1(C)C=[N+]([O-])C(C)(C)N1,> 100 µM (inactive),> 100 µM (inactive),> 100 µM (inactive),> 100 µM (inactive),> 100 µM (inactive),> 100,> 100 µM (inactive),> 100 µM (inactive),> 100 µM (inactive),> 100 µM (inactive),> 100 µM (inactive),> 100 µM (inactive),> 100 µM (inactive),> 100 µM (inactive),> 100 µM (inactive),> 100 µM (inactive),> 100 µM (inactive),–,> 100 µM (inactive)
